Experimental data: patent publication US20190321429A1, “TOPICAL NATURAL LITHRAEA CAUSTICA EXTRACT COMPOSITION AND USE THEREOF IN TUMOURS” (UNIVERSIDAD DE SANTIAGO DE CHILE, priority 2016, published 2019)

Tests used:
[1] = tested on: spleen lymphocyte populations; test: T lymphocyte populations in spleen of tumor-challenged treated mice (CD4, CD8, Treg, Th1, Th17); format: in vivo; conditions: b6 mice
Experimental: To analyze the effects of this treatment on lymphocyte populations T to determine if there was an analogy to these clinical cases effect, the treatment effect level spleen lymphocyte populations CD4 and CD8 was evaluated also subpopulations CD4 CD25 foxp3 which realizes regulatory T cells, the CD4+population Tbet+which realizes THL population and the presence of CD4+population+Ror range which realizes TH17 population. Treatment with DPCP associated tumor challenge, induced an increase in Th1 population present in spleen (FIG. 3). The analysis of mice treated b6 at least 8 experiment allows the characterization that this population increased compared to control animals, however, not be significant. […] Value p=0.59.
As for the previous case, it was determined that the effect of treatment, this time with DNCB on lymphocyte populations T as in previous case Treg (FIG. 8), Th1 (FIGS. 9A and 9B) and Th17 (FIG. 10) in b6 mice. […] Analysis of at least 8 animals per treatment let characterize the increase in this population is significant.
Finally, for the case of animals treated with liter extract, it was observed that tumor level, two behaviors that may indicate a temporary dynamic behavior of cell populations response to tumor level. […] Furthermore, the bearings of the other populations are inconclusive (FIG. 17B, 17C and 17D).

[2] = tested on: B16 murine melanoma model; test: Transplanted B16 melanoma tumor model in B6 mice: tumor appearance and growth under topical treatment; format: in vivo
Experimental: The effect of topical treatment with 0.1% diphencyprone in mice of the B6 strain transplanted tumor model was evaluated bl6. For which initially the animals were challenged with live cells reaching generating detectable tumors between 10 days until day 20 post challenge (FIG. 1). Tumor growth has a linear behavior reaching a peak at day 7 post near challenge (FIG. 2, black circles). […] For both cases the analysis of linear growth curves of both has no significant difference when comparing the slopes. Value p=0.85.

[3] = treatment associated with tumor challenge, versus control animals

SMILES: O=c1c(-c2ccccc2)c1-c1ccccc1 [DPCP, diphencyprone]
- Th1 population (CD4+ Tbet+) present in spleen [1, 3]: increase
- Th17 population (CD4+ Ror gamma+) present in spleen [1, 3]: showed no change
- Treg population (CD4 CD25 foxp3) in spleen [1, 3]: showed no change
- CD8 or CD4 populations associated with treatment ([1]; tumor challenge): No significant changes
- overall effect of curative treatment on tumor model ([2]; mice, DPCP 0.1% to 1%): not have major effects
- Tumor growth (time 0 = tumor mass detected) versus control animals treated with excipients ([2]; topical 0.1% DPCP, B6 mice): no difference
- tumor appearance, average detection ([2]; topical 0.1% diphencyprone, B6 mice, post challenge, shift from 13 days, change not significant): 16 days
